These results are taken from patent US9428536B2, “Immunostimulatory G, U-containing oligoribonucleotides” (Zoetis Belgium SA, priority 2002, dated 2016).

Common to all, as to format: cell-based
Data set [1] deals with human PBMC. The experiment in a line: Human PBMC TNF-α secretion, ELISA. To be noted: for TNF response of human PBMC: FIG. 15, 30 μM; for dose-response of TNF-α secretion: Example 2, 10, 3 or 1 μg RNA with 10 μg DOTAP per 200 μl well. How it is done: (§1) Human peripheral blood mononuclear cells (PBMCs) were isolated from healthy donors, plated at 3×10^5 cells/well, stimulated in vitro with various test and control immunostimulatory agents for 16 hours, and then analyzed by enzyme-linked immunosorbent assay (ELISA) using matched antibody pairs from BD-Pharmingen for secreted cytokines IL-12 p40 and TNF-α, performed according to the manufacturer's protocol. Also included were certain negative controls, including medium alone and DOTAP (10 μg/200 μl culture well; “Liposomes”) alone. The control immunostimulatory agents included the imidazoquinolone R-848 (2 μg/ml), lipopolysaccharide (LPS; 1 μg/ml), Pam3Cys (5 μg/ml), poly IC (50 μg/ml), and CpG DNA (50 μg/ml). These are reported ligands for TLR7, TLR4, TLR2, TLR3, and TLR9, respectively. Test immunostimulatory agents included the following RNA molecules, each at 50 μg/ml, with and without DOTAP (10 μg total “with Liposomes” and “without Liposomes”, respectively): GUGUUUAC alone; GUAGGCAC alone; GUGUUUAC in combination with GUAGGCAC; GUAGGA; GAAGGCAC; CUAGGCAC; CUCGGCAC; and CCCCCCCC. These RNA oligonucleotides each contained a phosphorothioate linkage between the penultimate and 3′ terminal nucleoside.
The experiments described in the preceding example were repeated with varied concentrations of RNA oligonucleotides in order to assess the dose-response behavior of human PBMCs to G,U-containing RNA oligonucleotides of the invention. A total of 10, 3 or 1 μg RNA was added to 10 μg DOTAP and then added to the 200 μl culture wells. After 16 hours IL-12 p40 and TNF-α ELISAs were performed as described in Example 1.
(§2) In order to investigate the possibility of using cholesteryl ester-modified RNA oligomer in place of RNA oligomer plus cationic lipid, RNA oligomer GUGUGUGU was prepared with (R 1058) and without (R 1006) a 3′ cholesteryl ester modification. These two RNA oligomers with and without DOTAP, were added over a range of concentrations to overnight cultures of human PBMC. Culture supernatants were harvested, and human TNF-α, IL-12 p40, and IFN-α were measured by ELISA using matched antibody pairs from BD-Pharmingen according to the manufacturer's protocol.
(§3) RNA oligomers GUGUGUGU, GUGUGUG, GUGUGU, GUGUG, GUGU, GUG, and GU, with and without DOTAP, were added over a range of concentrations to overnight cultures of human PBMC. Culture supernatants were harvested, and human TNF-α, IL-12 p40, and IFN-α were measured by ELISA using matched antibody pairs from BD-Pharmingen according to the manufacturer's protocol.
(§4) RNA oligomers, with and without DOTAP, were added over a range of concentrations to overnight cultures of human PBMC. Culture supernatants were harvested, and human TNF-α, IL-12 p40, and IFN-α were measured by ELISA using matched antibody pairs from BD-Pharmingen according to the manufacturer's protocol.
Human PBMC were cultured overnight in the presence of added DNA:RNA conjugate, with and without DOTAP. Culture supernatants were harvested and human TNF-α, IL-6, IL-12 p40, IP-10, and IFN-α were measured by ELISA using matched antibody pairs from BD-Pharmingen according to the manufacturer's protocol.
Human PBMC were cultured overnight in the presence of various concentrations (1, 3, and 10 μg/ml) of tRNA obtained from wheat germ, bovine, yeast, and E. coli sources, added to the culture medium with and without DOTAP. Culture supernatants were harvested and human TNF-α and IL-12 p40 were measured by ELISA using matched antibody pairs from BD-Pharmingen according to the manufacturer's protocol. […] In addition, E. coli tRNA at 3 and 10 μg/ml induced minor amounts of both cytokines even without DOTAP. […]
FIG. 10 depicts the responsiveness of human PBMC to stringent response factor (SRF). SRF is produced by rapidly growing bacteria (in this case Listeria monocytogenes) in rich media until their late log phase. The bacteria were pelleted and resuspended in an equal volume of PBS for 24 h. The mixture is centrifuged to remove the bacteria. […]

Data set [2] deals with human PBMC. The experiment in a line: Human PBMC IL-12 p40 secretion, ELISA. To be noted: for dose-response of IL-12 p40 secretion: Example 2, FIG. 3, 10, 3 or 1 μg RNA with 10 μg DOTAP per 200 μl well; for EC50 / IL-12 p40 max: Table 2, oligomer length, human PBMC overnight, including DOTAP. As for the experimental part: as §1
The experiments described in the preceding example were repeated with varied concentrations of RNA oligonucleotides in order to assess the dose-response behavior of human PBMCs to G,U-containing RNA oligonucleotides of the invention. A total of 10, 3 or 1 μg RNA was added to 10 μg DOTAP and then added to the 200 μl culture wells. After 16 hours IL-12 p40 and TNF-α ELISAs were performed as described in Example 1. […]
RNA oligomers GUGUGUGU, GUGUGUG, GUGUGU, GUGUG, GUGU, GUG, and GU, with and without DOTAP, were added over a range of concentrations to overnight cultures of human PBMC. Culture supernatants were harvested, and human TNF-α, IL-12 p40, and IFN-α were measured by ELISA using matched antibody pairs from BD-Pharmingen according to the manufacturer's protocol. […]

Data set [3] deals with human PBMC. Briefly: Human PBMC IFN-α secretion, ELISA. How it is done:
as §2, §3, §4
In like manner, an all-phosphodiester 40-mer capable of forming a stem-loop structure and having a base sequence as provided by 5′-[…]-3′ (R 1041; SEQ ID NO:10) was synthesized and tested in overnight culture with human PBMC.
On the technique in general: In an ELISA, binding on a coated surface is turned into a signal by an enzyme label.

Setting [4] is: Table 3, internucleoside linkages, human PBMC overnight, including DOTAP.
Setting [5] is: Table 3, internucleoside linkages, human PBMC overnight, including DOTAP, read-out: TNF-α EC50.
Where [6] appears, read: Table 3, internucleoside linkages, human PBMC overnight, including DOTAP, read-out: IFN-α EC50.
Setting [7] is: Table 1, human PBMC overnight culture, with DOTAP.
Setting [8] is: Table 1, human PBMC overnight culture, with DOTAP, read-out: TNF-α + DOTAP EC50.
Where [9] appears, read: Table 1, human PBMC overnight culture, without DOTAP.
The mark [10] stands for this setting: Table 1, human PBMC overnight culture, without DOTAP, read-out: TNF-α − DOTAP EC50.
The mark [11] stands for this setting: Table 1, human PBMC overnight culture, with DOTAP, read-out: IFN-α + DOTAP EC50.
Where [12] appears, read: Table 2, oligomer length, human PBMC overnight, including DOTAP.

Oligonucleotides are written 5' to 3', each unit as a sugar letter and its base; * is a phosphorothioate linkage, no mark a phosphodiester; rarer units and linkages stand in square brackets, end groups in braces. Plain capitals give the bases only. d = 2'-deoxy (DNA); r = 2'-OH (RNA)

“SEQ ID NO:19: G,U-rich DNA oligonucleotide counterpart of SEQ ID NO:1 (GUUGUGGUUGUGGUUGUG; DNA oligonucleotide, linkage chemistry not given here, further chemistry not given here) [reference compound]”: in data set [1], the “TNF response of human PBMC” value is given as “not”.

With CCCCCCCC, the “IL-12 p40 response of human PBMC (in words)” value in data set [2] (Example 1, FIG. 1, 16 hours, RNA 50 μg/ml with and without DOTAP, R-848 2 μg/ml, LPS 1 μg/ml, Pam3Cys 5 μg/ml, poly IC 50 μg/ml) was “did not secrete significant amounts”. Moreover, the “dose-response of IL-12 p40 secretion” value in data set [2] (16 hours) is listed as “appeared not to secrete”. The “TNF-α response of human PBMC (in words)” value in data set [1] (Example 1, FIG. 2, RNA 50 μg/ml, 16 hours) is recorded as “did not secrete significant amounts”. For the same substance, the “dose-response of TNF-α secretion” value in data set [1] (16 hours) is listed as “did not appear to secrete significant amounts”.

Consider G*U_G*U*G*U*G*U [R 1054], for which, in data set [1] (setting [4]), the TNF-α max was 40000 pg/mL. For the same substance, the EC50 (in general, the concentration that produces a half-maximal response) turned out to be 5.6 µM in data set [1] (setting [5]) and 6.7 µM in data set [3] (setting [6]). In data set [3] (setting [4]), this substance registered an IFN-α max of 3700 pg/mL.

For the substance “5′-GUUGUGGUUGUGGUUGUG-3′ (chemistry not given here) [SEQ ID NO:1, G,U-rich RNA oligonucleotide]”, in data set [1], the “TNF response of human PBMC” value is on record as “responsive”.

In turn, “5′-CACACACUGCUUAAGCGCUUGCCUGCUUAAGUAGUGUGUG-3′ (RNA, phosphodiester; forms stem-loop structure) [R 1041, all-phosphodiester 40-mer capable of forming a stem-loop structure]” had an IFN-α induction maximum in data set [3] (overnight culture with human PBMC) of 5000 pg/mL. In addition, in data set [3] (overnight culture with human PBMC, read-out: IFN-α induction EC50), the EC50 is less than 0.1 µM.

Consider GUGUGUGU [R 1058], for which the “TNF-α + DOTAP max” value in data set [1] (setting [7]) was found to be 75000 pg/mL. Also, the EC50 in data set [1] (setting [8]) is 0.2 µM; in data set [1] (setting [10]) it was 1 µM; in data set [3] (setting [11]), 0.5 µM; in data set [3] (Table 1, human PBMC overnight culture, without DOTAP, read-out: IFN-α − DOTAP EC50), 0.5 µM. The “TNF-α − DOTAP max” value in data set [1] (setting [9]) came to 3000 pg/mL. Besides, the “potency compared with R 1006 (cytokine induction in human PBMC)” value in data set [1] (both with and without DOTAP) is “more potent”. Besides, the “IFN-α + DOTAP max” value in data set [3] (setting [7]) stood at 3800 pg/mL. The “IFN-α − DOTAP max” value in data set [3] (setting [9]) is 1500 pg/mL.

As for GUGU [R 1051], in data set [2], the EC50 is more than 20 µM and the “IL-12 p40 max” value is 14000 pg/mL.

Take “G*U*G*U*G*U*G*U_dG_dG*dG*dG*dG*dG (rG*rU*rG*rU*rG*rU*rG*rUdGdG*dG*dG*dG*dG) [R 1060]”: the TNF-α max in data set [1] (Table 4, DNA:RNA conjugates, human PBMC overnight, including DOTAP) worked out at 20000 pg/mL. Also, the EC50 in data set [1] (Table 4, DNA:RNA conjugates, human PBMC overnight, including DOTAP, read-out: TNF-α EC50) is 4.9 µM.

Turning to GUAGGCAC, in data set [2] (16 hours), the “dose-response of IL-12 p40 secretion” value is “increasing amounts”. The “dose-response of TNF-α secretion” value in data set [1] (16 hours) was “increasing amounts”.

On to G*U*G*U*G*U*G*U [R 1006], for which the EC50 in data set [2] is 1.6 µM; in data set [1] (setting [8]) it was 2.8 µM; in data set [1] (setting [10]), 7.8 µM; in data set [1] (Table 2, oligomer length, human PBMC overnight, including DOTAP, read-out: TNF-α EC50), 2.8 µM; in data set [1] (setting [5]) it was 2.8 µM; in data set [3] (setting [11]), 4.5 µM. The EC50 in data set [3] (Table 2, oligomer length, human PBMC overnight, including DOTAP, read-out: IFN-α EC50) turned out to be 4.5 µM; in data set [3] (setting [6]) it was 4.5 µM. In addition, in data set [2], the “IL-12 p40 max” value stood at 7000 pg/mL. Besides, the “TNF-α + DOTAP max” value in data set [1] (setting [7]) came to 40000 pg/mL. For the same substance, the “TNF-α − DOTAP max” value in data set [1] (setting [9]) came to 2200 pg/mL. The TNF-α max in data set [1] (setting [12]) and in data set [1] (setting [4]) was 40000 pg/mL in each case. For the same substance, the “IFN-α + DOTAP max” value in data set [3] (setting [7]) was 5000 pg/mL. Besides, the IFN-α max in data set [3] (setting [12]) and in data set [3] (setting [4]) was 5000 pg/mL each time.

On to G*U_G*U_G*U_G*U [R 1056], for which the TNF-α max in data set [1] (setting [4]) was 12000 pg/mL. Further, in data set [1] (setting [5]), the half-maximal effective concentration (EC50) was more than 20 µM.
